Measured values as given in patent publication US20210330611A1, “THERAPY FOR NEUROLOGICAL DISEASES/DISORDERS” (priority 2020, published 2021).
Counter-ions that a name gives are not always drawn. Like-named read-outs stand apart in the source and are kept apart here.

Tests used:
primary rat microglia [1] = assay: Cell toxicity (dead cells, size <150 μm2) in coated fibrin (cFib) assay; details: primary microglia HTS;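 further: share of dead cells sized under 150 µm2 at 10 µM in fibrin-stimulated microglia HTS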
primary rat microglia [2] = tested on: primary rat microglia
[3] = tested on: fibrin-induced microglia activation; assay: Image-based assay of fibrin-induced microglia activation (HTS and dose response); assay type: cell-based, rat; details: primary microglia HTS, fibrin stimulation; for inhibition at 10 µM: Rattus norvegicus, Microglia, read-out: Fibrin % inhibition
[4] = tested on: fibrin- and LPS-induced microglia activation; assay: cells; assay type: cell-based, rat
[5] = tested on: LPS-induced microglia activation; assay: Image-based assay of LPS-induced microglia activation (HTS and dose response); assay type: cell-based, rat; details: for inhibition at 10 µM: Rattus norvegicus, Microglia, read-out: LPS % inhibition
[6] = fibrin stimulation, cell size <150 μm2 as marker of toxicity
[7] = cell size >800 μm2 as marker of activation
[8] = classification by fibrin and LPS inhibition in HTS
[9] = fibrin assay, dead cells (size <150 μm2), compounds at 10 μM
[10] = classification by fibrin and LPS inhibition, HTS at 10 μM
[11] = primary microglia HTS, LPS stimulation, compounds at 10 μM
[12] = fibrin assay, dead cells (size <150 μm2)
[13] = quadrant by fibrin and LPS inhibition, HTS at 10 μM

| Structure (SMILES) | Fibrin % cell toxicity (primary rat microglia [1]; [6]) [%] | LPS % cell toxicity (primary rat microglia [2]; rat) [%] | inhibition at 10 µM [3, 7] [%] | Quadrant (FIG. 5b) [4, 8] | inhibition at 10 µM ([5]; 48 h) [%] | Fibrin % cell toxicity (primary rat microglia [1]; [9]) [%] | inhibition at 10 µM ([3]; compounds at 10 μM) [%] | Quadrant (FIG. 5b) [4, 10] | inhibition at 10 µM [5, 11] [%] | other results |
| --- | --- | --- | --- | --- | --- | --- | --- | --- | --- | --- |
| COCCCOc1ccnc(C[S+]([O-])c2nc3ccccc3[nH]2)c1C (centres unmarked) [Rabeprazole] | 0 | 0 | -46 | Q4 | 3 |  |  |  |  |  |
| CCCCCCOc1ccccc1C(N)=O [Exalamide] |  | 0 |  |  |  | 1 | -15 | Q4 | 18 |  |
| O=C(O)/C=C\C(=O)O.O=C(O)/C=C\C(=O)O.c1ccc2nc(N3CCNCC3)ccc2c1 [Quipazine Dimaleate, Quipazine Maleate] | 1 |  |  | Q4 |  |  |  |  |  | LPS % cell toxicity (primary rat microglia [2]): 0%; Fibrin % inhibition [3, 7]: −18%; LPS % inhibition [5]: 9% |
| CC(CC(C(N)=O)(c1ccccc1)c1ccccc1)N(C)C (centres unmarked) [Aminopentamide Sulfate] |  | 0 |  |  |  |  | 3 |  | 12 | Fibrin % cell toxicity (primary rat microglia [1]; [12]): 1%; Quadrant (FIG. 5b) [4, 13]: Q4 |
| C[C@]12CCC(=O)C=C1[C@@H]1C[C@@H]1[C@H]1[C@@H]3[C@@H]4C[C@@H]4[C@@]4(CCC(=O)O4)[C@@]3(C)CC[C@@H]12 [Drospirenone] |  | 1 |  |  |  | 1 | 11 | Q4 | 6 |  |
| N=C(N)NN [Aminoguanidine] |  | 0 |  |  |  |  | -25 |  | 12 | Fibrin % cell toxicity (primary rat microglia [1]; [12]): 0%; Quadrant (FIG. 5b) [4, 13]: Q4 |
| CCCOc1cc(N)ccc1C(=O)OCCN(CC)CC [Propoxycaine] | 0 | 0 | 13 | Q4 | 14 |  |  |  |  |  |
| NNC(=O)c1ccncc1.Nc1ccc(C(=O)O)c(O)c1 [Pasiniazid] | 1 |  |  | Q4 |  |  |  |  |  | LPS % cell toxicity (primary rat microglia [2]): 0%; Fibrin % inhibition [3, 7]: −61%; LPS % inhibition [5]: 17% |
| CCCCCCCCNC(C)C(O)c1ccc(SC(C)C)cc1 (centres unmarked) [Suloctidil] |  | 0 |  |  |  |  | 112 |  | 3 | Fibrin % cell toxicity (primary rat microglia [1]; [12]): 90%; Quadrant (FIG. 5b) [4, 13]: Q3 |
| CC(=O)[C@H]1CC[C@H]2[C@@H]3C=CC4=CC(=O)CC[C@@]4(C)[C@@H]3CC[C@]12C [Dydrogesterone] |  | 0 |  |  |  | 0 | -11 | Q4 | 4 |  |
| O=C1Nc2ccc(Cl)cc2[C@@](C#CC2CC2)(C(F)(F)F)O1 [Efavirenz] |  | 0 |  |  |  | 1 | -7 | Q4 | -5 |  |
| Nc1ccc([As](=O)(O)O)cc1 [Arsanilic Acid] |  | 0 |  |  |  |  |  |  |  | Fibrin % cell toxicity (primary rat microglia [1]; [12]): 0%; Fibrin % inhibition ([3]; compounds at 10 μM): −42%; Quadrant (FIG. 5b) [4, 13]: Q4; LPS % inhibition [5, 11]: 12% |
| c1ccc2c(c1)Nc1ccccc1S2 [Phenothiazine] | 0 | 1 | -84 | Q4 | 24 |  |  |  |  |  |
| COc1ccc(C2CNC(=O)C2)cc1OC1CCCC1 (centres unmarked) [Rolipram] | 0 | 0 | 11 | Q4 | 11 |  |  |  |  |  |
| O=C(O)c1cc(O)c2c(c1)[C@H]([C@H]1c3cc(C(=O)O)cc(O)c3C(=O)c3c(O[C@@H]4O[C@H](CO)[C@@H](O)[C@H](O)[C@H]4O)cccc31)c1cccc(O[C@@H]3O[C@H](CO)[C@@H](O)[C@H](O)[C@H]3O)c1C2=O [Sennoside A] | 1 |  |  | Q4 |  |  |  |  |  | LPS % cell toxicity (primary rat microglia [2]): 0%; Fibrin % inhibition [3, 7]: −10%; LPS % inhibition [5]: 14% |
| O=C1c2cccc(O)c2C(=O)c2c(O)cccc21 [Dantron, Danthron] |  |  |  |  |  | 0 |  | Q4 |  | LPS % cell toxicity (primary rat microglia [2]): 0%; Fibrin % inhibition ([3]; compounds at 10 μM): −9%; LPS % inhibition [5, 11]: 13% |
| CN(C)C(=O)Oc1ccc[n+](C)c1 [Pyridostigmine] | 1 | 0 | 4 | Q4 | 9 |  |  |  |  |  |
| O=C1CC[C@@]2(O)[C@H]3Cc4ccc(O)c5c4[C@@]2(CCN3CC2CC2)[C@H]1O5 [Naltrexone Hydrochloride] |  | 2 |  |  |  |  | 107 |  | 79 | Fibrin % cell toxicity (primary rat microglia [1]; [12]): 4%; Quadrant (FIG. 5b) [4, 13]: Q2 |
| N[C@@H](CC(=O)N1CCn2c(nnc2C(F)(F)F)C1)Cc1cc(F)c(F)cc1F [Sitagliptin] | 0 | 0 | -16 | Q4 | 4 |  |  |  |  |  |
| FC(F)(Cl)C(F)(F)Cl [Cryoflurane] |  |  |  |  |  | 1 |  | Q4 |  | LPS % cell toxicity (primary rat microglia [2]): 0%; Fibrin % inhibition ([3]; compounds at 10 μM): −4%; LPS % inhibition [5, 11]: 12% |
| O=S(=O)([O-])CCSSCCS(=O)(=O)[O-].[Na+].[Na+] [Dimesna] |  |  |  |  |  | 1 |  | Q4 |  | LPS % cell toxicity (primary rat microglia [2]): 0%; Fibrin % inhibition ([3]; compounds at 10 μM): −19%; LPS % inhibition [5, 11]: 13% |
| Cc1c(NC(C)C)c(=O)n(-c2ccccc2)n1C [Ramifenazone] | 0 | 0 | -11 | Q4 | 9 |  |  |  |  |  |
| CC1CC(OC(=O)C(O)c2ccccc2)CC(C)(C)C1 (centres unmarked) [Cyclandelate] |  | 0 |  |  |  | 0 | -57 | Q4 | 4 |  |
| C[C@]12C=CC(=O)C=C1CC[C@@H]1[C@@H]2[C@@H](O)C[C@@]2(C)[C@H]1CC[C@]2(O)C(=O)COC(=O)CCC(=O)O [Prednisolone Hemisuccinate] |  | 3 |  |  |  |  | 106 |  | 96 | Fibrin % cell toxicity (primary rat microglia [1]; [12]): 3%; Quadrant (FIG. 5b) [4, 13]: Q2 |
| OC(CCN1CCCC1)(c1ccccc1)C1CCCCC1 (centres unmarked) [Procyclidine] | 1 | 1 | 0 | Q4 | 26 |  |  |  |  |  |
| OCCN1CCN(CCCN2c3ccccc3Sc3ccc(Cl)cc32)CC1 [Perphenazine] | 1 | 1 | 23 | Q4 | 23 |  |  |  |  |  |
| NS(=O)(=O)c1cc2c(cc1Cl)N=C(CSCc1ccccc1)NS2(=O)=O [Benzthiazide] |  | 0 |  |  |  |  | -8 |  | 7 | Fibrin % cell toxicity (primary rat microglia [1]; [12]): 1%; Quadrant (FIG. 5b) [4, 13]: Q4 |
| C[C@@H](CO)NC(=O)[C@@H]1C=C2c3cccc4[nH]cc(c34)C[C@H]2N(C)C1 [Ergonovine Maleate] |  | 0 |  |  |  | 1 |  | Q4 |  | Fibrin % inhibition ([3]; compounds at 10 μM, 10 µM): 9%; LPS % inhibition ([5]; primary microglia HTS, LPS stimulation, compounds at 10 μM, 10 µM): 7% |
